# Experiments:
# [1] = system: Hepatocyte; assay: Cytotoxicity against Sprague-Dawley rat primary hepatocytes after 24 hrs by MTT assay; type: cell-based
# [2] = system: HepG2; assay: Cytotoxicity against human HepG2 cells after 24 hrs by MTT assay; type: functional, cell-based
# [3] = system: HeLa; assay: Cytotoxicity against human HeLa cells after 24 hrs by MTT assay; type: functional, cell-based
# [4] = system: Hepatocyte; assay: Cytotoxicity against rat primary hepatocytes at 300 ug/ml after 24 hrs by MTT assay; type: cell-based
# [5] = system: HepG2; assay: Cytotoxicity against human HepG2 cells at 300 ug/ml after 24 hrs by MTT assay; type: functional, cell-based
# [6] = system: HeLa; assay: Cytotoxicity against human HeLa cells at 300 ug/ml after 24 hrs by MTT assay; type: functional, cell-based
# [7] = system: Hepatocyte; assay: Antioxidant effect in Sprague-Dawley rat primary hepatocytes assessed as decrease in tert-butyl hydroperoxide-induced malondialdehyde accumulation administered 50 ug/ml for 7 hrs followed by combined exposure of tert-butyl hydroperoxide and drug for 12 hrs; type: functional; parameters: scale not given: the % may be the effect or the level left
# [8] = system: Hepatocyte; assay: Antioxidant effect in Sprague-Dawley rat primary hepatocytes assessed as decrease in tert-butyl hydroperoxide-induced malondialdehyde accumulation administered 100 ug/ml for 7 hrs followed by combined exposure of tert-butyl hydroperoxide and drug for 12 hrs; type: functional; parameters: scale not given: the % may be the effect or the level left
# [9] = system: Hepatocyte; assay: Antioxidant effect in Sprague-Dawley rat primary hepatocytes assessed as prevention of tert-butyl hydroperoxide-induced reduction in glutathione content administered 50 ug/ml for 7 hrs followed by combined exposure of tert-butyl hydroperoxide and drug for 12 hrs; type: functional; parameters: scale not given: the % may be the effect or the level left
# [10] = system: Hepatocyte; assay: Antioxidant effect in Sprague-Dawley rat primary hepatocytes assessed as prevention of tert-butyl hydroperoxide-induced reduction in glutathione content administered 100 ug/ml for 7 hrs followed by combined exposure of tert-butyl hydroperoxide and drug for 12 hrs; type: functional; parameters: scale not given: the % may be the effect or the level left
# [11] = Homo sapiens, HepG2, 24 h, read-out: IC50
# [12] = Homo sapiens, HeLa, 24 h, read-out: IC50
smiles,measurement,setting,value
c1ccc2c(c1)C[C@H]1NCCc3cc4c(c-2c31)OCO4 [ANONAINE],IC50,[1],70.3 µg/mL
same,IC50,[2]; [11],33.5 µg/mL
same,IC50,[3]; [12],24.8 µg/mL
COc1cc2c3cc1Oc1c(O)c(OC)cc4c1[C@H](Cc1ccc(OC)c(c1)-c1cc(ccc1O)C[C@H]3N(C)CC2)N(C)CC4 [ANTIOQUINE],IC50,[1],4.06 µg/mL
same,IC50,[2]; [11],460 µg/mL
same,IC50,[3]; [12],548 µg/mL
COc1ccc2cc3[n+](cc2c1OC)CCc1cc2c(cc1-3)OCO2.[Cl-] [BERBERINE CHLORIDE],IC50,[1],26.5 µg/mL
same,IC50,[2]; hepg2,146 µg/mL
same,IC50,[3]; hela,138 µg/mL
COc1ccc2c(c1OC)CN1CCc3cc4c(cc3[C@@H]1C2)OCO4 [CANADINE],Activity,[4],Non-toxic
same,Activity,[5],Not toxic
same,Activity,[6],Not toxic
same,Activity,[7],>80%
same,Activity,[8],>80%
same,Activity,[9],>95%
same,Activity,[10],>95%

# From ChEMBL document CHEMBL1157160, “Antioxidant and cytotoxic activities of canadine: biological effects and structural aspects” (Bioorg Med Chem, 2008)
